For 19 compounds, IC50 results are on record in patent publication US20220332700A1, “NOVEL APOPTOSIS SIGNAL-REGULATING KINASE 1 INHIBITORS” (MANKIND PHARMA LTD, priority 2019, published 2022).

One experiment concerns the target T1, recombinant ASK1 (Homo sapiens, UniProt Q99683).
T1 construct: purchased Carna Biosciences
The experiment is described as follows: ASK1 Biochemical Assay (HTRF KinEASE-STK S3). Conditions: ATP 100 μM; read-out: Biochemical Assay IC50. Put shortly: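 Recombinant ASK1 (5 ng) preincubated with compound 1 h at 23 °C in MOPS pH 7 buffer with Mg-acetate, DTT, NP40, glycerol, BSA and 1% DMSO. Inhibition calculated against vehicle after substrate-blank subtraction.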
(In general: Time-resolved FRET reads energy transfer from a long-lived donor to a nearby acceptor.)

Another experiment has as its target T2, Human ASK1 (Homo sapiens, UniProt Q99683).
T2 construct: expressed in transfected cells; host or cells: HEK293T-AP1
T2 sequence (Q99683 1-1374): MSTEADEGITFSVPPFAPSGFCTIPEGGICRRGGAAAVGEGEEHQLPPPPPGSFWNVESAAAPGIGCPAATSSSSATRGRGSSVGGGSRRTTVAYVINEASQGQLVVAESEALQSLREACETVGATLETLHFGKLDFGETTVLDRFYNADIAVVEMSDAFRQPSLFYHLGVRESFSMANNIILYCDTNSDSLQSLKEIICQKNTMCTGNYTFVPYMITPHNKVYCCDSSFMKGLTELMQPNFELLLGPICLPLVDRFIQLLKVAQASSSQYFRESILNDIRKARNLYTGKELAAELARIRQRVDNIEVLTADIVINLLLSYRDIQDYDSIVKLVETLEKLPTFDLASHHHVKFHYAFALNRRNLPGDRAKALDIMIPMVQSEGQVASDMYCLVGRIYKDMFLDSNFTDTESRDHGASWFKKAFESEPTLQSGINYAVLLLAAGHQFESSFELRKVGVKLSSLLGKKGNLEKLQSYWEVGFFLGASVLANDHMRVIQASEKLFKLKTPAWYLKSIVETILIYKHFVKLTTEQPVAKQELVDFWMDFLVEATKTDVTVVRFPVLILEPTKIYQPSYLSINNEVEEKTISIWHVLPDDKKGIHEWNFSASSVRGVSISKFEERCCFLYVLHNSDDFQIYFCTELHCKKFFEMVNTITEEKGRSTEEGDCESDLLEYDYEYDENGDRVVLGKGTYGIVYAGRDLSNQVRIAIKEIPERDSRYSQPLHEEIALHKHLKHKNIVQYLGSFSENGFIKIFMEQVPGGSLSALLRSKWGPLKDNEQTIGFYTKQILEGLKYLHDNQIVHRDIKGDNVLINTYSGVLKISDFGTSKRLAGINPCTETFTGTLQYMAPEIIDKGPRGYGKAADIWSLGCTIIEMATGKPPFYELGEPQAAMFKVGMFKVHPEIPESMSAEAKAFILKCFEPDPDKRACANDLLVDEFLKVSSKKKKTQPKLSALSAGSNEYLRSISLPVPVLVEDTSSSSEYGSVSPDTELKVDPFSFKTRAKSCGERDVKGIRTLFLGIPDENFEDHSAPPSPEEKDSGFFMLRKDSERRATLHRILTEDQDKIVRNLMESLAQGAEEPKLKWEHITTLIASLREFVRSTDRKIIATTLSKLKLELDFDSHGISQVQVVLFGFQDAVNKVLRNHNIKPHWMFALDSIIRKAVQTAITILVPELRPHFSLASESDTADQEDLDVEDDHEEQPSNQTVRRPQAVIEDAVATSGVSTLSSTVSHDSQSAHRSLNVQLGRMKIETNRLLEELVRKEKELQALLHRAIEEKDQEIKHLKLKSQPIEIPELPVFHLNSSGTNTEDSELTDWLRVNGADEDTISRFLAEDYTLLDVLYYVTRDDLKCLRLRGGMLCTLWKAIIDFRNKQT
Kind of experiment: ASK1 Cell Based Assay (phospho p38 read out in hASK1 transfected HEK293T-AP1 cells). Particulars: HEK293T-AP1 cells, 1 mM hydrogen peroxide, phospho p38; read-out: Cell Based Assay IC50. As for the experimental part: HEK293T-AP1 cells were seeded at a density of 20,000 cells per well in a poly-d-lysine coated 96 well microplate. Next day, cells were transfected with hASK1-pcDNA3.1 vector using lipofectamine 3000. After 24 hours of transfection, cells were treated with compounds for 24 hours in assay medium. DMSO was used as a vehicle control with a final DMSO concentration of 0.2%. On 4th day, medium was discarded and cells were activated with 1 mM hydrogen peroxide for 1 hour in the presence of compounds. Cells were lysed for 1 hour with 1× lysis buffer on a shaker at 100 rpm. Sixteen microliters of lysate was collected into a 384 well small volume plate. Phospho p38 levels in the lysate was detected by using CisbioPhospho-p38 MAPK (Thr180/Tyr182) #64P38PEG.Four microliters of phospho p38 antibodies labelled with europium cryptate and d2 acceptor, were added to the lysate and incubated overnight. TR-FRET was measured at an excitation of 335 nm and emission was measured at 615 nm and 665 nm in BMG FLUOstar multimode reader.
Compounds were assessed for ASK1 inhibition based on phospho p38 read out. […] Background control values were susbtracted from vehicle control as well as from compound treated wells.

For orientation: IC50 means the midpoint of a concentration-inhibition curve. Take `CC(C)C(C#N)C1CN(c2ccc(N3CCN(c4cccc(-c5nncn5C(C)C)n4)C3=O)cc2)C1` (centres unmarked) [Example 1134, 2-(1-(4-(3-(6-(4-isopropyl-4H-1,2,4-triazol-3-yl)pyridin-2-yl)-2-oxoimidazolidin-1-yl)phenyl)azetidin-3-yl)-3-methylbutanenitrile]: the values for the IC50 on recombinant ASK1 and on Human ASK1 were under 100 nM and over 1000 nM, respectively.

For `CC1COCCN1c1ccc(N2CCN(c3cccc(-c4nncn4C(C)C)n3)C2=O)cc1` (centres unmarked) [Example 1069, 1-(6-(4-isopropyl-4H-1,2,4-triazol-3-yl)pyridin-2-yl)-3-(4-(3-methylmorpholino)phenyl)imidazolidin-2-one], the IC50 at recombinant ASK1 was under 100 nM; on Human ASK1, over 100 nM.

With `CC(C)n1cnnc1-c1cccc(N2CCN(c3cccc(N4CCOCC4)c3)C2=O)n1` [Example 1108, 1-(6-(4-isopropyl-4H-1,2,4-triazol-3-yl)pyridin-2-yl)-3-(3-morpholinophenyl)imidazolidin-2-one], the IC50 on recombinant ASK1 is over 100 nM; on Human ASK1, over 1000 nM.

Turning to `CC(c1ccc(N2CCN(c3cccc(-c4nncn4C(C)C)n3)C2=O)cc1)N1CCOCC1` (centres unmarked) [Example 1114, 1-(6-(4-isopropyl-4H-1,2,4-triazol-3-yl)pyridin-2-yl)-3-(4-(1-morpholinoethyl)phenyl)imidazolidin-2-one], the IC50 at recombinant ASK1 is under 10 nM; on Human ASK1 it was over 1000 nM.

Take `CC(C)n1cnnc1-c1cccc(N2CCN(c3cccc(-c4cnn(S(C)(=O)=O)c4)c3)C2=O)n1` [Example 1014, 1-(6-(4-isopropyl-4H-1,2,4-triazol-3-yl)pyridin-2-yl)-3-(3-(1-(methylsulfonyl)-1H-pyrazol-4-yl)phenyl)imidazolidin-2-one]: the IC50 was over 100 nM on recombinant ASK1 and over 10000 nM on Human ASK1.

Consider `CC(C)n1cnnc1-c1cccc(N2CCN(c3ccc(CN4CCOCC4)cc3)C2=O)n1` [Example 1080, 1-(6-(4-isopropyl-4H-1,2,4-triazol-3-yl)pyridin-2-yl)-3-(4-(morpholinomethyl)phenyl)imidazolidin-2-one], for which the IC50 is under 100 nM on recombinant ASK1 and over 1000 nM on Human ASK1.

Turning to `COCCCNc1ccc(N2CCN(c3cccc(-c4nncn4C(C)C)n3)C2=O)cn1` [Example 1118, 1-(6-(3-methoxypropylamino)pyridin-3-yl)-3-(6-(4-isopropyl-4H-1,2,4-triazol-3-yl)pyridin-2-yl)imidazolidin-2-one], the IC50 at recombinant ASK1 was under 100 nM; at Human ASK1, over 1000 nM.

In the case of `COc1ccc(-c2ccc(S(C)(=O)=O)nc2)cc1N1CCN(c2cccc(-c3nncn3C(C)C)n2)C1=O` [Example 1019, 1-(6-(4-isopropyl-4H-1,2,4-triazol-3-yl)pyridin-2-yl)-3-(2-methoxy-5-(6-(methylsulfonyl)pyridin-3-yl)phenyl)imidazolidin-2-one], the IC50 at recombinant ASK1 was over 100 nM; at Human ASK1, over 10000 nM.

For the compound `COc1cc(S(C)(=O)=O)c(C)cc1N1CCN(c2cccc(-c3nncn3C(C)C)n2)C1=O` [Example 1055, 1-(6-(4-isopropyl-4H-1,2,4-triazol-3-yl)pyridin-2-yl)-3-(2-methoxy-5-methyl-4-(methylsulfonyl)phenyl)imidazolidin-2-one], the half-maximal inhibitory concentration (IC50) on recombinant ASK1 is under 100 nM; at Human ASK1, over 1000 nM.

For `CC1CN(c2ccc(N3CCN(c4cccc(-c5nncn5C(C)C)n4)C3=O)cc2)CCO1` (centres unmarked) [Example 1078, 1-(6-(4-isopropyl-4H-1,2,4-triazol-3-yl)pyridin-2-yl)-3-(4-(2-methylmorpholino)phenyl)imidazolidin-2-one], the concentration for half-maximal inhibition (IC50) on recombinant ASK1 is under 100 nM; on Human ASK1 it was over 100 nM.

Turning to `CC(C)n1cnnc1-c1cccc(N2CCN(c3ccc(S(=O)(=O)C4CC4)cc3)C2=O)n1` [Example 1025, 1-(4-(cyclopropylsulfonyl)phenyl)-3-(6-(4-isopropyl-4H-1,2,4-triazol-3-yl)pyridin-2-yl)imidazolidin-2-one], the IC50 on recombinant ASK1 was under 100 nM; on Human ASK1, under 1000 nM.

For `CC(C)n1cnnc1-c1cccc(N2CCN(c3ccc(S(C)(=O)=O)c(N4CCCCC4)c3)C2=O)n1` [Example 1063, 1-(6-(4-isopropyl-4H-1,2,4-triazol-3-yl)pyridin-2-yl)-3-(4-(methylsulfonyl)-3-(piperidin-1-yl)phenyl)imidazolidin-2-one], the concentration for half-maximal inhibition (IC50) was under 100 nM on recombinant ASK1 and over 1000 nM at Human ASK1.

Consider `CC(CC#N)n1cnnc1-c1cccc(N2CCN(c3ccc(S(C)(=O)=O)cc3)C2=O)n1` (centres unmarked) [Example 1053, 3-(3-(6-(3-(4-(methylsulfonyl)phenyl)-2-oxoimidazolidin-1-yl)pyridin-2-yl)-4H-1,2,4-triazol-4-yl)butanenitrile], for which the results for the IC50 at recombinant ASK1 and on Human ASK1 were under 100 nM and over 1000 nM, respectively.

`CC(C)n1cnnc1-c1cccc(N2CCN(c3ccc(NC(C(N)=O)C4CC4)cc3)C2=O)n1` (centres unmarked) [Example 1052, 2-(4-(3-(6-(4-isopropyl-4H-1,2,4-triazol-3-yl)pyridin-2-yl)-2-oxoimidazolidin-1-yl)phenylamino)-2-cyclopropylacetamide]: the figures for the concentration for half-maximal inhibition (IC50) on recombinant ASK1 and at Human ASK1 were under 100 nM and over 1000 nM, respectively.

For the compound `CC(C)n1cnnc1-c1cccc(N2CCN(c3cccc(-c4ccc(S(C)(=O)=O)nc4)c3)C2=O)n1` [Example 1010, 1-(6-(4-isopropyl-4H-1,2,4-triazol-3-yl)pyridin-2-yl)-3-(3-(6-(methylsulfonyl)pyridin-3-yl)phenyl)imidazolidin-2-one], the figures for the IC50 at recombinant ASK1 and on Human ASK1 were 25 nM and over 1000 nM, respectively.

As to `CC(C)n1cnnc1-c1cccc(N2CCN(c3ccc(N4CC(C(N)=O)C4)cc3)C2=O)n1` [Example 1093, 1-(4-(3-(6-(4-isopropyl-4H-1,2,4-triazol-3-yl)pyridin-2-yl)-2-oxoimidazolidin-1-yl)phenyl)azetidine-3-carboxamide], the IC50 on recombinant ASK1 was under 100 nM; at Human ASK1, over 100 nM.

On to `CNC(=O)[C@@H]1CCN(c2ccc(N3CCN(c4cccc(-c5nncn5C(C)C)n4)C3=O)cc2)C1` [Example 1130, (R)-1-(4-(3-(6-(4-isopropyl-4H-1,2,4-triazol-3-yl)pyridin-2-yl)-2-oxoimidazolidin-1-yl)phenyl)-N-methylpyrrolidine-3-carboxamide], for which the values for the 50% inhibitory concentration (IC50) at recombinant ASK1 and on Human ASK1 were under 50 nM and under 100 nM, respectively.

As for `CC(C)n1cnnc1-c1cccc(N2CCN(c3ccc(N4CC(F)C4)cc3)C2=O)n1` [Example 1096, 1-(4-(3-fluoroazetidin-1-yl)phenyl)-3-(6-(4-isopropyl-4H-1,2,4-triazol-3-yl)pyridin-2-yl)imidazolidin-2-one], the half-inhibitory concentration (IC50) at recombinant ASK1 was under 100 nM; on Human ASK1, over 100 nM.

`CC(C)n1cnnc1-c1cccc(N2CCN(c3ccc(N4CCC(C#N)CC4)cc3)C2=O)n1` [Example 1087, 1-(4-(3-(6-(4-isopropyl-4H-1,2,4-triazol-3-yl)pyridin-2-yl)-2-oxoimidazolidin-1-yl)phenyl)piperidine-4-carbonitrile]: the half-maximal inhibitory concentration (IC50) on recombinant ASK1 is under 100 nM; at Human ASK1, over 100 nM.
